These results are taken from patent US20040077028A1, “Assay for thrombocytopenia associated with administration of platelet GPIIb-IIIa receptor antagonists” (priority 2002, published 2004).

The subject of series [1] is platelets (leukocyte-platelet aggregates) in citrate anticoagulated whole blood. The experiment in a line: Neutrophil-platelet (leukocyte-platelet) aggregates by flow cytometry in whole blood with Y2/51. The series is classed as cell-based. The conditions noted are these: abciximab 6.5 μg/ml, tirofiban 50 ng/ml, FITC conjugated Y2/51, FIG. 1. The source says:
In some embodiments, platelet activation is detected by assaying leukocyte-platelet aggregation. In such protocols, peripheral blood is drawn from a subject into a suitable anticoagulant, for example 3.2% sodium citrate anticoagulant or PPACK. […] ADP is not generally used in the assay when the subject is receiving ADP receptor antagonist therapy. […] The fluorescent conjugates of the reagents are labeled to be distinguishable from each other (e.g., fluorescein and phycoerythrin) so that both can be detected by flow cytometry. […] Samples are generally analyzed by flow cytometry. […] Leukocyte-platelet aggregates are identified using fluorescence histograms displaying fluorescence (above background) of platelet specific markers (e.g., CD41, CD61, CD42a or CD42b) from the gated monocyte, neutrophil or lymphocyte populations. Both the mean fluorescence intensity and the percent positive (above background) measurements are recorded. The relative amount of fluorescence (or percent positive above background) in the subject's sample is compared to a reference. An increase in the amount of fluorescence (or percent positive above background) in the subject's sample compared to the reference indicates an increased amount of platelet activation in the subject's sample. […]

For series [2] the following is noted: cited from earlier work.
For series [3], the system named is platelets (platelet surface P-selectin expression). In words: Platelet surface P-selectin expression by flow cytometry with GPIIb-specific antibody 5B12. Type of series: cell-based. The conditions noted are these: 5B12 (GPIIb-specific) instead of Y2/51; sub-maximal agonist; FIG. 2. Background: In flow cytometry, cells or beads pass a laser one at a time.
Procedure: After a subject's blood sample has been incubated with a GPIIb-IIIa antagonist as described above, it is diluted (e.g., between 1:10 and 1:15) in autologous platelet-poor plasma (PPP). Platelet activation is assayed. Briefly, an aliquot (e.g., 20 μl) of dilute whole blood (or PRP)-GPIIb-IIIa receptor antagonist mix is incubated for 15-30 minutes at an appropriate temperature (for example, between about 22° C. and 37° C.) with sub-maximal concentration of a platelet agonist (e.g., in 10 μl). Examples of sub-maximal concentrations of platelet agonist are 0.5 μM ADP, 5.0 μM thrombin receptor activating peptide (TRAP), or 1.5 μM iso-TRAP. ADP is not generally used in the assay when the subject is receiving ADP receptor antagonist therapy. To identify platelets and to detect platelet activation, detection reagents are added.
The samples are generally analyzed using flow cytometry. Platelets are identified by light scatter characteristics and labeling of platelets using platelet-specific antibodies (e.g., antibodies that recognize CD41, CD61, CD42a, or CD42b). The binding of antibodies directed against indicators of platelet activation (e.g., anti-P-selectin, CD62P) is assayed using flow cytometry. […] The mean fluorescence intensity and the percent positive (above background) measurements are recorded.
In a second set of experiments, the monoclonal antibody 5B12 (DAKO) which is GPIIb-specific was used instead of Y2/51.
Series [4] has as its system platelets (platelet P-selectin expression). The conditions noted are these: platelet-rich plasma; 1 μg/ml eptifibatide; 0.5 μM ADP; absence of Mab IV.3; FIG. 3.
Procedure: In these experiments, platelet-rich plasma was pre-incubated with FcγRII receptor blocking monoclonal antibody (Mab IV.3, 10 μg/ml). […] The mean fluorescence intensity of platelet P-selectin expression in the presence of 0.5 μM ADP was measured in the presence or absence of unconjugated Y2/51 and in the presence or absence of GPIIb-IIIa receptor antagonist, and with or without an FcγRII receptor blocking monoclonal antibody (Mab IV.3).
Setting [5] is: within the patient population that develops an HACA response.

Positions of bridges follow the written chain, without caps; N, C: chain ends. Non-standard residues stand in square brackets, D forms with d. Residues, ends and D or L forms follow the SMILES beside them. hArg = N=C(N)NCCCC[C@H](N)C(=O)O; Mpa = O=C(O)CCS

As to abciximab, the “augmentation by Y2/51 of agonist-induced leukocyte-platelet aggregation (neutrophil-platelet aggregates) in the presence of the GPIIb-IIIa antagonist” value in series [1] is reported as “did not augment”. For the same molecule, the “incidence of thrombocytopenia (platelet count of <100×10^9/L)” value in series [2] (patients receiving the drug for a second time (re-administration)) was 3.6%. In series [2] (setting [5]), the “incidence of profound thrombocytopenia (platelet count of <20×10^9/L)” value is listed as “less than 1%” and the “incidence of thrombocytopenia (count of <100×10^9/L)” value was 3.5%. For the same molecule, the “augmentation of agonist-induced platelet surface P-selectin expression in the presence of the GPIIb-IIIa antagonist with 5B12” value in series [3] is given as “observed”.

Consider `CCCCS(=O)(=O)N[C@@H](Cc1ccc(OCCCCC2CCNCC2)cc1)C(=O)O` [tirofiban], for which the “augmentation by Y2/51 of agonist-induced leukocyte-platelet aggregation (neutrophil-platelet aggregates) in the presence of the GPIIb-IIIa antagonist” value in series [1] is given as “augmented”. Besides, the “augmentation of agonist-induced platelet surface P-selectin expression in the presence of the GPIIb-IIIa antagonist with 5B12” value in series [3] was “not augmented”.

As for `N=C(N)NCCCC[C@@H]1NC(=O)CCSSC[C@@H](C(N)=O)NC(=O)[C@@H]2CCCN2C(=O)[C@H](Cc2c[nH]c3ccccc23)NC(=O)[C@H](CC(=O)O)NC(=O)CNC1=O` [eptifibatide] ([Mpa][hArg]GDWPC-NH2; disulfide 1-7), the “augmentation by Y2/51 of ADP-mediated platelet activation (P-selectin) in the presence of the antagonist” value in series [4] is reported as “augments”. For the same molecule, the “augmentation of agonist-induced platelet surface P-selectin expression in the presence of the GPIIb-IIIa antagonist with 5B12” value in series [3] was “not augmented”.
